In patent US11266686B2, “Metal complexes and methods of treatment” (PROCYPRA THERAPEUTICS LLC, priority 2013, dated 2022):

Experiment: Pharmacokinetics in mice after oral administration, plasma and brain by LC/MS/MS
Conditions: 30 mg/kg CuXTSM API oral; for Brain AUC0-24h / Brain AUC0-inf / Brain Cmax / Brain Tmax / Brain t½ (number of time points): mouse brain; for Brain t½ (number of time points) / Plasma t½ (number of time points): bracket = number of time points; for Plasma Ke / Plasma MRT / Plasma AUC0-24h / Plasma AUC0-inf / Plasma Cmax / Plasma Tmax / Plasma t½ (number of time points): mouse plasma; for Plasma AUC0-24h / Plasma AUC0-inf / Plasma Cmax / Plasma Tmax: CuATSM in SSV, NCDs in water
Description: CuATSM was suspended in “Standard Suspension Vehicle” (SSV), consisting of 0.9% (w/v) NaCl, 0.5% (w/v) sodium carboxymethylcellulose, 0.5% (v/v) benzyl alcohol, and 0.4% (v/v) Tween 80 in deionized water. All other test compounds were suspended in sterile water. Samples were prepared by adding one of the compounds to the liquid vehicle (water or SSV) in a vial and then vortexing the mixture for 3 min with a stir bar inside. If the powdered sample was not completely wetted or not completely suspended, the sample was vortexed for another minute. If wetting was still incomplete, the vial was sonicated until a fully wetted suspension was obtained. Between doses, the sample was stirred on medium speed and then vortexed for an additional 20 s immediately before the next dose was removed from the vial. All dosing was completed from a single preparation of the suspension within 60 min of adding the compound to water or SSV.
Mice were deprived of pelleted food overnight, during which time 10% dextrose, as Dextroput, was provided in tap water, after which the test items were administrated orally by gavage in water or SSV. […] The blood samples were kept on ice after sampling and centrifuged at +4° C., 1800×g for 5 min to prepare plasma. Plasma samples were extracted and transferred into pre-labelled Eppendorf test tubes (50 μl exact in one vial, and the remaining in a second vial) and frozen at −20° C. The samples were transported on dry ice to the analysis site. Following blood sampling, mice were euthanized by cervical dislocation, and then brains were collected through opened skulls. The brains were weighed and placed in test tubes and placed on water ice. Phosphate-buffered saline (PBS, pH 7.4), 4 ml per 1 g of brain tissue, was added to the test tube and brains were homogenized by using Ultra-Turrax T25 homogenizer/S25N-10G (Setting 2, 9500 rpm, approximately 10 s). The homogenate was frozen at −20° C. immediately after homogenization. The samples were transported on dry ice to the analysis site.
Dosed mice were studied in triplicate for each of the seven time points, totaling 21 mice dosed for each studied compound. Plasma samples and brain homogenates from four untreated animals were also obtained. The plasma samples were thawed at room temperature (RT), mixed with 2-fold volume of acetonitrile, shaken and centrifuged for 10 min at 13 000×g (Heraeus Pico 17 centrifuge), after which supernatants were transferred into glass vials. The brain homogenate samples were mixed with 2-fold volume of acetonitrile:methanol, shaken, ultrasonicated for 20 min, and centrifuged for 10 min at 13 000×g (Heraeus Pico 17 centrifuge), after which supernatants were transferred into glass vials. […] Quality control (QC) samples were prepared for concentrations 10, 100 and 1000 ng/ml in plasma or brain homogenates.
Elution was with gradient of 0.5% formic acid/acetonitrile (99:1) increased step-wise to (5:95).
The pharmacokinetic parameters for study compounds in plasma and brain were calculated using standard non-compartmental methods. The elimination phase half-life (t½) was calculated by least-squares regression analysis of the terminal linear part of the log concentration-time curve. […] The maximum concentration (Cmax) and the time to Cmax (Tmax) were derived directly from the concentration data. Mean Residence Time, MRT, and elimination rate constant, Ke, were also calculated from the concentration vs. time data of plasma samples.

SMILES: CNC1=NN=C(C)C(C)=NN=C(NC)[S][Cu][S]1.O=C(O)CC(O)(CC(=O)O)C(=O)O [CuATSM:citric acid (1:1)]
- Brain AUC0-24h: 15435 ng·min/g
- Brain AUC0-inf: 15563 ng·min/g
- Brain Cmax: 77.0 ng/g
- Brain Tmax: 1 h
- Brain t½ (number of time points): 218 (4) min
- Plasma Ke: 0.0034 min⁻¹
- Plasma MRT: 5.25 h
- Plasma AUC0-24h: 8292 ng·min/mL
- Plasma AUC0-inf: 8366 ng·min/mL
- Plasma Cmax: 14.5 ng/mL
- Plasma Tmax: 1 h
- Plasma t½ (number of time points): 204 (3) min

SMILES: CNC1=NN=CC(C)=NN=C(NC)[S][Cu][S]1.O=C1NS(=O)(=O)c2ccccc21.O=C1NS(=O)(=O)c2ccccc21 [CuPTSM:saccharin (1:2)]
- Brain AUC0-24h: 62832 ng·min/g
- Brain AUC0-inf: 72025 ng·min/g
- Brain Cmax: 189 ng/g
- Brain Tmax: 0.5 h
- Brain t½ (number of time points): 487 (2) min
- Plasma Ke: 0.0016 min⁻¹
- Plasma MRT: 7.9 h
- Plasma AUC0-24h: 60004 ng·min/mL
- Plasma AUC0-inf: 68278 ng·min/mL
- Plasma Cmax: 91.5 ng/mL
- Plasma Tmax: 1 h
- Plasma t½ (number of time points): 439 (2) min
- Brain:plasma-ratio (Cmax-based) (mouse): 2.1
